Reference: patent publication US6696076B2, “Immune response modifier compounds for treatment of TH2 mediated and related diseases” (3M Innovative Properties Company, priority 1996, dated 2004)

How the values were obtained:
[1] = tested on: sephadex-induced eosinophilia in the lung; test: Sephadex-induced lung eosinophilia in rats (EPO assay); type: in vivo; details: rat; for dose capable of inhibiting sephadex-induced eosinophilia in the lung: 60 minutes prior to challenge; for maximum inhibition of sephadex-induced eosinophilia: maximum over doses and routes tested
[2] = tested on: ovalbumin-induced eosinophilia in the lung; test: Ovalbumin-induced lung eosinophilia in the guinea pig (EPO assay); type: in vivo; details: for maximum inhibition of ovalbumin-induced eosinophilia: maximum over doses and routes tested
[3] = tested on: IL-5 production in spleen cells from OVA-sensitized CFW mice; test: Inhibition of mouse spleen cell production of IL-5 (OVA-stimulated cultures, ELISA); type: cell-based; details: for IL-5 Concentration: 96 hr
[4] = tested on: antigen induced IL-5 production; test: Antigen induced IL-5 production in vivo (serum, OVA-challenged sensitized mice); set-up: species or system mouse; details: for −24 hr IL-5: 24 hrs before OVA challenge; for −24 hr IL-5 / 0 hr IL-5: serum 7 hrs after OVA; for 0 hr IL-5: same time as OVA challenge
Protocol: CFW male mice were sensitized with OVA as described above. 14 days after the last sensitization animals were challenged with 100 μg OVA sc. […] Serum was collected 7 hrs after OVA and analyzed for IL-5 and IFN-γ concentrations. Results are expressed as the mean cytokine concentration ±SEM.

[5] = tested on: antigen-induced eosinophilia in the lung; test: Antigen-induced lung eosinophilia after aerosol OVA challenge (EPO in lung); type: in vivo, mouse; details: 1 mg/kg, 15 minutes prior to antigen challenge, mice
Protocol: Concentrations of IL-4 were reduced in the BAL of these mice by 43% when compared to animals receiving antigen alone. […] Fourteen days after boosting animals were dosed by nebulization for 30 minutes using a 1% OVA solution. This was repeated on days 17 and 20. Twenty-four hours after the final nebulized dose animals were sacrificed and bronchoalveolar lavage (BAL) was performed using 1.0 ml of PBS containing 1% fetal bovine serum. BAL was stored at −70° C. before analyzed. Lungs were then removed and placed in 0.5% cetrimide, 0.05 M KH2PO4 for homogenization of 4×30 seconds with 30 second cooling intervals between on ice. Centrifugation was then done at 1300 rpm (400×g) for 30 minutes at 4C. Pellet was collected and resuspended in 4 ml 0.5% cetrimide, 0.05 M KH2PO4 buffer. Samples were then frozen until sonication and the EPO assessment. This was followed by sonication for 3×15 seconds with 30 second intervals on ice. […] To start the reaction, 1 ul of 30% hydrogen peroxide was added to the cuvette. The optical density reading was measured spectrophotometrically over a 4 minute time interval at 490 nm in a Beckman Du-64 spectrophotometer.

IL-5 = test: Antigen-induced IL-5 in BAL after aerosol OVA challenge (ELISA); type: in vivo, mouse; details: 1 mg/kg, 15 minutes prior to antigen challenge, mice
Protocol: (§1) Concentrations of IL-4 were reduced in the BAL of these mice by 43% when compared to animals receiving antigen alone. […] Fourteen days after boosting animals were dosed by nebulization for 30 minutes using a 1% OVA solution. This was repeated on days 17 and 20. Twenty-four hours after the final nebulized dose animals were sacrificed and bronchoalveolar lavage (BAL) was performed using 1.0 ml of PBS containing 1% fetal bovine serum. BAL was stored at −70° C. before analyzed. Lungs were then removed and placed in 0.5% cetrimide, 0.05 M KH2PO4 for homogenization of 4×30 seconds with 30 second cooling intervals between on ice. Centrifugation was then done at 1300 rpm (400×g) for 30 minutes at 4C. Pellet was collected and resuspended in 4 ml 0.5% cetrimide, 0.05 M KH2PO4 buffer. Samples were then frozen until sonication and the EPO assessment. This was followed by sonication for 3×15 seconds with 30 second intervals on ice. BAL were analyzed by ELISA (Endogen) for IL-5 and IL-4 concentrations with data being presented as the average from 11 animals ±SEM. […] IL-5 concentration is in pg/ml.

IL-4 = test: Antigen-induced IL-4 in BAL after aerosol OVA challenge (ELISA); type: in vivo, mouse; details: 1 mg/kg, 15 minutes prior to antigen challenge, mice
Protocol: as §1

[6] = intratracheal instillation, 0.03 mg/kg
[7] = intratracheal instillation, 0.1 mg/kg
[8] = intratracheal instillation, 0.3 mg/kg
[9] = intratracheal instillation, 0.7 mg/kg
[10] = oral administration, 30.0 mg/kg
[11] = aerosol inhalation, 0.003 mg/kg
[12] = intraperitoneal administration, 0.003 mg/kg
[13] = intraperitoneal administration, 0.01 mg/kg
[14] = intraperitoneal administration, 0.03 mg/kg
[15] = intraperitoneal administration, 3.0 mg/kg
[16] = oral administration, 0.001 mg/kg
[17] = oral administration, 0.01 mg/kg

SMILES: Cc1nc2c(N)nc3ccccc3c2n1CC(C)(C)O [Cmpd 1, 4-amino-α,α,-2-trimethyl-1H-imidazo[4,5-c]quinoline-1-ethanol]
- % Inhibition [1, 6]: 0%
- EPO Concentration in the Lung (χ ± SE) [1, 6]: 0.7107 ± 0.129
- % Inhibition [1, 7]: 9%
- EPO Concentration in the Lung (χ ± SE) [1, 7]: 0.5030 ± 0.089
- % Inhibition [1, 8]: 44%
- EPO Concentration in the Lung (χ ± SE) [1, 8]: 0.3440 ± 0.201
- % Inhibition [1, 9]: 77%
- EPO Concentration in the Lung (χ ± SE) [1, 9]: 0.1967 ± 0.080
- dose capable of inhibiting sephadex-induced eosinophilia in the lung ([1]; intratracheal instillation): ≥ 0.7 mg/kg
- maximum inhibition of sephadex-induced eosinophilia [1]: 95%
- % Inhibition ([1]; oral administration, 0.1 mg/kg): 0%
- EPO Concentration in the Lung (χ ± SE) ([1]; oral administration, 0.1 mg/kg): 0.4240 ± 0.138
- % Inhibition ([1]; oral administration, 0.7 mg/kg): 64%
- EPO Concentration in the Lung (χ ± SE) ([1]; oral administration, 0.7 mg/kg): 0.1497 ± 0.030
- % Inhibition ([1]; oral administration, 1.0 mg/kg): 87%
- EPO Concentration in the Lung (χ ± SE) ([1]; oral administration, 1.0 mg/kg): 0.0780 ± 0.039
- % Inhibition ([1]; oral administration, 5.0 mg/kg): 87%
- EPO Concentration in the Lung (χ ± SE) ([1]; oral administration, 5.0 mg/kg): 0.0790 ± 0.030
- % Inhibition [1, 10]: 95%
- EPO Concentration in the Lung (χ ± SE) [1, 10]: 0.0550 ± 0.013
- dose capable of inhibiting sephadex-induced eosinophilia in the lung ([1]; oral administration): ≥ 0.7 mg/kg
- % Inhibition [2, 11]: 13%
- EPO Concentration in the Lung (χ ± SE) [2, 11]: 0.2620 ± 0.116
- % Inhibition ([2]; aerosol inhalation, 0.01 mg/kg): 44%
- EPO Concentration in the Lung (χ ± SE) ([2]; aerosol inhalation, 0.01 mg/kg): 0.1806 ± 0.035
- dose capable of inhibiting ovalbumin-induced eosinophilia in the lung ([2]; aerosol inhalation, 15 minutes prior to challenge): 0.01 mg/kg
- % Inhibition [2, 12]: 28%
- EPO Concentration in the Lung (χ ± SE) [2, 12]: 0.2435 ± 0.0515
- % Inhibition [2, 13]: 54%
- EPO Concentration in the Lung (χ ± SE) [2, 13]: 0.1690 ± 0.053
- % Inhibition [2, 14]: 54%
- EPO Concentration in the Lung (χ ± SE) [2, 14]: 0.1693 ± 0.060
- % Inhibition [2, 15]: 92%
- EPO Concentration in the Lung (χ ± SE) [2, 15]: 0.0580 ± 0.018
- dose capable of inhibiting ovalbumin-induced eosinophilia in the lung ([2]; intraperitoneal administration, 15 minutes prior to challenge): 0.01 mg/kg
- maximum inhibition of ovalbumin-induced eosinophilia [2]: 92%

SMILES: CCOCc1nc2c(N)nc3ccccc3c2n1CC(C)(C)O [Cmpd 2, 4-amino-2-ethoxymethyl-α,α-dimethyl-1H-imidazo[4,5-c]quinoline-1-ethanol]
- IL-5 Concentration ([3]; OVA 100 μg/ml + IRM Compound 0.01 μg/ml, mean ±SEM): 125 ± 46 pg/mL
- IL-5 Concentration ([3]; OVA 100 μg/ml + IRM Compound 0.1 μg/ml, mean ±SEM): 25 ± 8 pg/mL
- IL-5 Concentration ([3]; OVA 100 μg/ml + IRM Compound 1 μg/ml, mean ±SEM): 22 ± 3 pg/mL
- IL-5 Concentration ([3]; OVA 100 μg/ml + IRM Compound 10 μg/ml, mean of triplicate cultures ±SEM): 12 ± 2 pg/mL
- inhibition of IL-5 production ([3]; concentrations as low as 0.01 μg/ml): greater than 60%
- inhibition of IL-5 production ([3]; higher concentrations (above 0.01 μg/ml)): 100%
- inhibition of IL-5 production ([4]; doses as low as 0.01 mg/kg po): at least 65%
- −24 hr IL-5 ([4]; free-base po 0.01 mg/kg): 78 pg/mL
- 0 hr IL-5 ([4]; free-base po 0.01 mg/kg): 96 pg/mL
- −24 hr IL-5 ([4]; free-base po 0.1 mg/kg): 49 pg/mL
- 0 hr IL-5 ([4]; free-base po 0.1 mg/kg): 62 pg/mL
- −24 hr IL-5 ([4]; free-base po 1.0 mg/kg): 38 pg/mL
- 0 hr IL-5 ([4]; free-base po 1.0 mg/kg): 40 pg/mL
- −24 hr IL-5 ([4]; free-base po 10.0 mg/kg): 8 pg/mL
- 0 hr IL-5 ([4]; free-base po 10.0 mg/kg): 29 pg/mL
- EPO Concentration in Lung [5]: 352 ± 30 ABS
- inhibition of antigen-induced eosinophilia in the lung (value in parentheses) [5]: 78%
- IL-5 Concentration in BAL (IL-5): 13 ± 2 pg/mL
- reduction of BAL IL-5 concentration (value in parentheses) (IL-5): 78%
- IL-4 Concentration in BAL (IL-4): 53 ± 8 pg/mL
- reduction of BAL IL-4 concentration (value in parentheses) (IL-4): 43%
- reduction of BAL IL-4 concentration (value in parentheses) (IL-4; listed as IRM Compound): 42%
- maximum inhibition of sephadex-induced eosinophilia [1]: 87%
- % Inhibition [1, 16]: 0%
- EPO Concentration in the Lung (χ ± SE) [1, 16]: 0.6775 ± 0.140
- % Inhibition [1, 17]: 32%
- EPO Concentration in the Lung (χ ± SE) [1, 17]: 0.4908 ± 0.070
- % Inhibition ([1]; oral administration, 0.1 mg/kg): 84%
- EPO Concentration in the Lung (χ ± SE) ([1]; oral administration, 0.1 mg/kg): 0.2000 ± 0.060
- % Inhibition ([1]; oral administration, 1.0 mg/kg): 87%
- EPO Concentration in the Lung (χ ± SE) ([1]; oral administration, 1.0 mg/kg): 0.1824 ± 0.060
- dose capable of inhibiting sephadex-induced eosinophilia in the lung ([1]; oral administration): ≥ 0.01 mg/kg
- maximum inhibition of ovalbumin-induced eosinophilia [2]: 96%
- % Inhibition [2, 16]: 19%
- EPO Concentration in the Lung (χ ± SE) [2, 16]: 0.1862 ± 0.030
- % Inhibition [2, 17]: 49%
- EPO Concentration in the Lung (χ ± SE) [2, 17]: 0.1181 ± 0.020
- % Inhibition ([2]; oral administration, 0.1 mg/kg): 95%
- EPO Concentration in the Lung (χ ± SE) ([2]; oral administration, 0.1 mg/kg): 0.0118 ± 0.005
- % Inhibition ([2]; oral administration, 1.0 mg/kg): 96%
- EPO Concentration in the Lung (χ ± SE) ([2]; oral administration, 1.0 mg/kg): 0.0084 ± 0.005
- dose capable of inhibiting ovalbumin-induced eosinophilia in the lung ([2]; oral administration, 60 minutes prior to challenge): 0.01 mg/kg
